Assay results taken from US7262003B2, “Plant test procedure to detect natural, semi-synthetic, synthetic compounds and physical stress factors through expression of distinct responses” (Council of Scientific and Industrial Research, priority 1998, dated 2007).
“Also recorded” adds a separate entry of the source. Like-named read-outs stand apart in the source and are kept apart here.

Columns and labels:
Bacopa monnieri twigs [1] = assay: Cytotoxic/weedicidal effect: menthol in medium and Mentha arvensis oil sprayed on twigs; format: in vivo; details: menthol added to the medium and oil sprayed on the twigs
Protocol: We also planned the experiments to determine if this procedure can depict a clear cut manifestation of cytotoxic/weedicidal effect of compounds. For this purpose we used a known essential oil of Mentha arvensis, which is rich in the toxic but useful component, menthol as the treatment. The procedure involved was same as in the above examples with the exception that menthol was added to the medium and oil was sprayed on these twigs which were inoculated into the medium. […] Refer to FIG. #4 of Sheet #2.

[2] = test system: regenerants of Bacopa monniera; details: cited from earlier work
[3] = test system: Bacopa monnieri leaf, internode and twig cuttings; assay: Response of leaf, internode and twig cutting explants to growth promoters (auxins, cytokinins) in MS 0 medium; format: in vivo; details: for Response observed, Cutting: MS 0 medium containing 1.0 mg/litre; for Response observed, Cutting / Response observed, Internode / Response observed, Leaf: recorded up to two weeks; for Response of leaf, internode and cuttings: MS 0 supplemented at 0.5 and 1.0 mg/litre
Protocol: Initially the experiments were designed to observe the response of leaf, internode and cuttings against growth promoters (auxins: 2,4-D & Indole acetic acid) and […] (cytokinins: 6-Benzyl amino purine & kinetin). The basal medium for studying the response was MS 0 (Murashige T and Skoog F, 1962, Physiol. Planta. 15: 473–497) supplemented with these growth regulators at the rates of 0.5 and 1.0 mg/litre along with a control of just the basal medium.
The basal medium for studying the response was MS 0 (Murashige T and Skoog F, 1962, Physiol. Planta. 15: 473–497) supplemented with test compounds along with a control of just the basal medium. Measured 0.5 ml medium was poured into 1.5 ml graduated microcentrifuge tubes. Into this, twig cutting of 2.5 cm were inoculated in 20 replicates for each type of medium. These inoculated tubes were put into a half transparent (top lid) box allowing air passage through sterile cotton plugs such that the medium containing portion of the tubes where roots would be initiating is inserted into the stand holes made from a thermocol sheet. Refer FIG. 1 of Sheet #1. […] Such boxes were incubated at normal ambient temperature of 25–28° C. with 14 hours light and 10 hours dark cycle.
To find out the effect of growth promoters such as Indole 3 acetic acid (IAA), 2,4-Dichlorophenoxy acetic acid (2,4-D), and cytokinins such as 6-Benzyl Amino Purine (6-BAP) and Kinetin, the leaf, internode and twig cuttings were inoculated into MS 0 medium containing […] of the above said compounds and the responses were recorded up to two weeks in terms of rooting, callusing and shoot regeneration (Table 1).

[4] = test system: Avocado cv. Verde in vitro; details: antibiotic in the plant growth medium; cited from earlier work
Bacopa cultures = details: in vivo; cited from earlier work
Bacopa monnieri twigs [5] = assay: Growth inhibitor test on twigs in basal MS media; format: in vivo; details: after 10 days of inoculation
Protocol: The basal medium for studying the response was MS 0 (Murashige T and Skoog F, 1962, Physiol. Planta. 15: 473–497) supplemented with test compounds along with a control of just the basal medium. Measured 0.5 ml medium was poured into 1.5 ml graduated microcentrifuge tubes. Into this, twig cutting of 2.5 cm were inoculated in 20 replicates for each type of medium. These inoculated tubes were put into a half transparent (top lid) box allowing air passage through sterile cotton plugs such that the medium containing portion of the tubes where roots would be initiating is inserted into the stand holes made from a thermocol sheet. Refer FIG. 1 of Sheet #1. This set up was helpful in preventing the light exposure to the root portion while at the same time aerial parts got sufficient light and aeration. Such boxes were incubated at normal ambient temperature of 25–28° C. with 14 hours light and 10 hours dark cycle. […] The earliest response was seen was on day 3 in the case of medium containing ¼th level of nitrogen followed by medium containing normal level of nitrogen, while in the case of zero nitrogen, initiation was observed only after 8 days. Thus, the medium with ¼ nitrogen level of standard MS basal medium was selected for root assays and was referred as MSR (rooting) medium.
The effects of growth inhibitors were also tested using the protocol as described in Example 1. […]

Bacopa root tips = format: in vivo, Bacopa monnieri
[6] = test system: Bacopa monnieri twig cuttings; format: in vivo
[7] = 10 and 100 μg/ml in MSR, up to day 15
[8] = concentrations ranging from 1 to 100 μg/ml, 14 days

With `CC1CCC(C(C)C)C(O)C1` (centres unmarked) [menthol] the “Spread of chlorophyll loss” value (Bacopa monnieri twigs [1]) was “within a week time covered whole twig”.

For `[Cd]` [Cd, cadmium], the Concentration tolerated ([2]; grown with additional supply of Cu) is listed as “up to 100 μM” and the “Concentration beyond which regenerants did not survive” value ([2]; in vivo) is listed as 50 µM.

In the case of `O=C(O)COc1ccc(Cl)cc1Cl` [2,4-D, 2,4-Dichlorophenoxy acetic acid], the “Response observed, Cutting” value [3] is reported as “Aerial Root”, the “Response observed, Internode” value ([3]; MS 0 medium containing 1 mg/ml) is reported as “Root Initiation; also recorded: Root Thickening; also recorded: Explant Swelling” and the “Response observed, Leaf” value ([3]; MS 0 medium containing 1 mg/ml) is reported as “Root Initiation; also recorded: Root Thickening; also recorded: Callus Initiation”. The “Response of leaf, internode and cuttings” value [3] was “small thick roots got initiated at the internodes”.

For `[H]/N=C(/N)N[C@H]1[C@H](O)[C@@H](O)[C@H](O[C@@H]2O[C@@H](C)[C@](O)(C=O)[C@H]2O[C@@H]2O[C@@H](CO)[C@H](O)[C@@H](O)[C@@H]2NC)[C@@H](N/C(N)=N\[H])[C@@H]1O` [streptomycin], the “Toxicity to avocado (length of sprouts reduced)” value [4] is given as “toxic”.

In the case of `[Cl][Al]([Cl])[Cl]` [AlCl3], the “Concentration beyond which Bacopa cultures could not survive” value (Bacopa cultures) is given as 400 µM.

In the case of `O=C(N[C@H](CO)[C@H](O)c1ccc([N+](=O)[O-])cc1)C(Cl)Cl` [chloramphenicol], the “Toxicity to avocado (length of sprouts reduced)” value [4] is listed as “toxic”.

For `CCn1cc(C(=O)O)c(=O)c2ccc(C)nc21` [nalidixic acid, Nalidixic acid], the “Root initiation and growth” value (Bacopa monnieri twigs [5]; 10 μg/ml) is listed as “roots got initiated from the submerged nodes but their growth was less than the control”, the “Root initiation and growth” value (Bacopa monnieri twigs [5]; 100 μg/ml) is listed as “very small roots arose from submerged node and their growth was completely arrested” and the “Toxicity to avocado (length of sprouts reduced)” value [4] is listed as “toxic”.

For `O=C(O)Cc1c[nH]c2ccccc12` [IAA, Indole 3 acetic acid], the “Response observed, Cutting” value [3] was “Aerial Root”, the “Response observed, Internode” value ([3]; MS 0 medium containing 1 mg/ml) was “Root Initiation” and the “Response observed, Leaf” value ([3]; MS 0 medium containing 1 mg/ml) was “Root Initiation”. The “Response of leaf, internode and cuttings” value [3] was “profuse rooting”.

With `CC(=O)O[C@H]1C(=O)[C@@]2(C)[C@H]([C@H](OC(=O)c3ccccc3)[C@]3(O)C[C@H](OC(=O)[C@H](O)[C@@H](NC(=O)c4ccccc4)c4ccccc4)C(C)=C1C3(C)C)[C@]1(OC(C)=O)CO[C@@H]1C[C@@H]2O` [Taxol, taxol] the “Effect on mitotic index (words)” value (Bacopa root tips; 10 μg/ml) was “significantly reduce the mitotic index”, the “Reduction of mitotic index compared to untreated control samples” value (Bacopa root tips; 10 μg/ml) was 2.55 fold and the “Number of cells in phase Ana” value (Bacopa root tips; 10 μg/ml, dipping 3 hours) was 01. The “Number of cells in phase Meta” value (Bacopa root tips; 10 μg/ml, dipping 3 hours) was 03, the “Number of cells in phase Pro” value (Bacopa root tips; 10 μg/ml, dipping 3 hours) was 01 and the “Number of cells in phase Telo” value (Bacopa root tips; 10 μg/ml, dipping 3 hours) was 00. The “Mitotic Index” value (Bacopa root tips; 10 μg/ml, dipping 3 hours, 10 randomly selected fields) was 7.14 ± 1.52, the “Effect on mitotic index (words)” value (Bacopa root tips; 10 μg/ml, listed as taxol) was “substantial reduction in the mitotic index” and the “Cell division in the root tips” value (Bacopa root tips; 100 μg/ml) was “inhibited almost complete cell division”. The Root initiation [6, 7] was “inhibited the complete root initiation”, the “Visible effect on the aerial parts” value [6, 7] was “wilting of the leaves” and the Root initiation [6, 8] was “did not initiate the roots at all”. For the same compound, the “Shoot growth and health” value [6, 8] was “no shoot growth; also recorded: wilting and later withering”.

In the case of `c1coc(CNc2ncnc3[nH]cnc23)c1` [Kinetin], the “Response observed, Cutting” value [3] is reported as “Root Initiation and Root”, the “Response observed, Internode” value ([3]; MS 0 medium containing 1 mg/ml) is reported as “No Response” and the “Response observed, Leaf” value ([3]; MS 0 medium containing 1 mg/ml) is reported as “Root Initiation”.

For `c1ccc(CNc2ncnc3nc[nH]c23)cc1` [BAP, 6-Benzyl Amino Purine], the “Response observed, Cutting” value [3] was “Root Initiation and Root”, the “Response observed, Internode” value ([3]; MS 0 medium containing 1 mg/ml) was “Callus Initiation; also recorded: Shoot” and the “Response observed, Leaf” value ([3]; MS 0 medium containing 1 mg/ml) was “Callus Initiation; also recorded: Shoot”. For the same compound, the “Response of leaf and internodal explant” value ([3]; MS 0 medium containing 1 mg/ml, up to two weeks) was “green callus has formed, followed by shoot regeneration” and the “Response of leaf, internode and cuttings” value [3] was “green callus developed in all three explants followed by shoot regeneration”.
